The values below come from patent US20240409902A1, “SYSTEMS AND METHODS FOR CULTURING PODOCYTES AND USES THEREOF” (Washington University, priority 2021, published 2024).

Entries after “also recorded” stand apart in the source; their conditions may differ.

One assay has as its system primary mouse podocytes. The assay is described as follows: Cell relaxation and strain mapping with microbead-embedded hydrogels after CytoD. In kind it is cell-based. The procedure: Fluorescent microbeads with a diameter of 0.2 μm (Invitrogen, F8801) were added to the hydrogel's pre-cross-linking solution with a 1:60 dilution ratio before the cross-linking step. After solidification, hydrogels were used for the strain mapping as reported earlier. Briefly, primary mouse podocytes were isolated as described above, seeded on the hydrogels, and allowed to spread for 24 hours. Next, the cells were transferred to a live-imaging chamber before adding CytoD to the culture medium (CytoD, Sigma-Aldrich, 22144-77-0; final concentration, 20 μM). In the final step, the culture medium was changed to 10% SDS to remove the attached cells completely. Cell relaxation and microbead movements were recorded immediately after adding CytoD or 10% SDS, and the strain field was calculated using a strain mapping algorithm that was developed in our previous study.
(§1) For counting and scoring cell phenotypes, imaged podocytes were divided into several categories, including (i) cells with SLSs centrally and in the periphery, (ii) cells with SLSs only in the periphery, (iii) cells with loose striated patterns of synaptopodin and myosin IIA instead of a mat of SLSs (i.e., widely spaced SLSs), and, lastly, (iv) cells without SLSs. For measuring cell length, the longest axis of the cell was determined (mostly along the micropattern direction), and the length was determined through ImageJ (v1.53e with Bio-Formats plugin).

The next assay relates to primary podocytes. The assay can be described thus: Myosin II inhibition with blebbistatin: sarcomere-like structures (SLSs) in primary podocytes, immunostained for synaptopodin and myosin IIA. It counts as cell-based, mouse. The procedure:
After spreading, cultured podocytes on the hydrogels or glass were fixed in 4% paraformaldehyde (Electron Microscopy Sciences, 15712) for 10 min at room temperature followed by washing with 1×PBS, three times for 6 min each, and then permeabilized using 0.05% Triton X-100 for 10 min at room temperature. Next, samples were blocked using 2% bovine serum albumin (Sigma-Aldrich, A7906) for 30 min at room temperature before applying the primary antibodies overnight at 4° C. Next, samples were washed with 1×PBS, three times for 6 min each before incubating them with the secondary antibodies in PBS for 1 hour at room temperature. Last, the samples were washed in 1×PBS, three times for 6 min, and prepared for mounting using Invitrogen Slow Fade mounting medium (Invitrogen, S36917). The cover glass holding the sample (hydrogel and cells) was bonded to a second cover glass using nail polish. The primary antibodies used were myosin IIA (BioLegend, 909801, rabbit anti-mouse), myosin IIA (Abnova, clone 3C7, mouse anti-human, NH2-terminus), synaptopodin (Synaptic Systems, 163004, guinea pig anti-mouse), laminin α5 [clone 4C7, mouse anti-human], fibronectin (Sigma-Aldrich, F3648, rabbit anti-human), collagen IV (SouthernBiotech, 1340-01, goat anti-human), nephrin (R&D Systems, AF3159, goat anti-mouse), and α-SMA (Invitrogen, 14-9760-82). Alexa Fluor 555 phalloidin (Thermo Fisher Scientific, A34055) was used for actin staining. For mouse myosin antibodies (clone 3C7), samples were antigen retrieved in TE (Tris-EDTA) buffer (pH 9.0) at 65° C. for 4 hours before the permeabilization step.
Blebbistatin (EMD Millipore, 203389-5) was used to inhibit the function of myosin II in the podocytes. […] After 2 hours of treatment, the samples were washed with PBS and immediately fixed and stained as mentioned above.
Sarcomeric structures were measured using ImageJ (v1.53e with Bio-Formats plugin). Briefly, fluorescence intensity maps were acquired by plotting the intensity along a line drawn perpendicular to the sarcomere structure. For the histogram, the spacing of each sarcomere is calculated by recording the peak location in the intensity map, and n for each group represents the total sarcomere number calculated in that group. For averaged sarcomeric spacing, the mean values were calculated for each intensity map (i.e., each stress fiber that is no less than 6 μm long), while n for each group represents the number of stress fibers analyzed in that group.
as §1

Assay [1] deals with podocytes from isolated mouse glomeruli. The assay can be described thus: Glomerular culture and podocyte spreading on ECM-micropatterned hydrogels. It counts as cell-based. To be noted: glomeruli cultured 2 days on micropatterned PAAm hydrogels. The source says: To test which micropatterned ECM proteins best support podocytes, mouse glomeruli were isolated and cultured on hydrogels coated with Lam-521, collagen IV, or fibronectin. […] Furthermore, the PAAm hydrogel was coated with Lam-521 and micropatterned protein-free patches onto the substrate using a PDMS stamp that removed Lam-521, leaving an inverse of the previous Lam-521 micropatterns interdigitated with microscale patches of exposed PAAm.
Next, the PDMS stamp was cleaned by sonication (Branson) for 20 min and washed in 50% ethanol solution before drying under nitrogen flow followed by plasma cleaning for 2 min (Harrick Plasma). Last, the PDMS stamp micropattern areas were soaked in different ECM solutions [laminin 521 (50 μg/ml; Biolamina, LN521-05), fibronectin (Corning, 356008), or collagen IV (Corning, 354233) in phosphate-buffered saline (PBS)] and left to set for 1 hour at room temperature.
After air-drying the ECM proteins atop the PDMS stamp, the excess solution was removed, and the stamp was dried further using nitrogen flow. The freshly prepared hydroxyl-PAAm hydrogel was also dried out by treatment with nitrogen flow. […]

For `C=C1[C@@H](C)[C@H]2[C@H](Cc3ccccc3)NC(=O)[C@]23[C@H](OC(C)=O)/C=C/[C@@](C)(O)C(=O)[C@@H](C)C/C=C/[C@H]3[C@@H]1O` [CytoD, cytochalasin D], the “cell length before and after CytoD” value in the assay on primary mouse podocytes (0.9 kPa substrates, 15 min CytoD) is recorded as “most cells elongated along their axes; also recorded: increases in cell length associated with 15 min of CytoD treatment were statistically significant”; in the assay on primary mouse podocytes (6 kPa substrates, CytoD) it was “Less, but still significant cell relaxation”. Also, the “substrate strains associated with treatment” value with primary mouse podocytes (6 kPa substrates, CytoD compared with subsequent SDS treatment) is “much larger than those associated with subsequent SDS treatment”. Besides, the “cell relaxation after actin disruption” value in the assay on primary mouse podocytes (reseeded primary podocytes, CytoD 20 μM, video recording) is “significant cell relaxation”.
Regarding `Cc1ccc2c(c1)C(=O)C1(O)CCN(c3ccccc3)C1=N2` (centres unmarked) [blebbistatin, Blebbistatin], in the assay on primary podocytes (10 nM blebbistatin, 0.2- or 0.9-kPa hydrogels (FIG. 4F)), the SLS formation result is given as “SLSs failed to form; also recorded: caused the loss of SLSs with a lower concentration of blebbistatin”. Moreover, the “SLS formation and sarcomeric spacing” value in the assay with primary podocytes (10 nM blebbistatin, 6.0-kPa hydrogels or glass substrates (FIGS. 4F and G), listed as Blebb) is recorded as “myosin inhibition led to wider sarcomeric spacing”. Moreover, the “effect on SLSs” value in the assay on primary podocytes (2 μM blebbistatin (milder myosin inhibition)) was “insufficient to disrupt the SLSs at the cell periphery but sufficient to disrupt those in the centers of the cells”; with primary podocytes (10 μM blebbistatin, 2 hours, 6.0-kPa PAAm hydrogels and cover glass with Lam-521), “caused aggregation of synaptopodin in the center of the cells and increased sarcomeric spacing in SLSs that persisted at the cell periphery”; in the assay with primary podocytes (100 μM blebbistatin, 2 hours, 6.0-kPa PAAm hydrogels and cover glass with Lam-521) it was “nearly eliminated SLSs”. The “disruption or loss of SLSs, concentration not given” value in the assay with primary podocytes (podocytes on glass or patterned hydrogels (FIGS. 4D and E)) was “disrupted the sarcomeric structures of SLSs in a way that depended on the dose, substrate stiffness, and position; also recorded: caused a marked loss of SLSs”.
As to human laminin α5β2γ1 trimer [Lam-521], the “podocyte population of micropatterns” value in assay [1] is listed as “podocytes populated micropatterns coated with Lam-521”.
